# “Also recorded” adds a separate entry of the source. Ends that are not written are not given here.
# Experiments:
# Format in all cases: cell-based, human
# [1] = tested on: COS7 transfected with full length ECT2 gene and HLA-A*2402; assay: Specific CTL activity against transfected target cells; conditions: CTL clone or line raised by the peptide, vs control transfectants
# Protocol: (§1) Briefly, peptide-pulsed A24-LCL or T2 cell (1×10^4/well) was prepared as stimulator cells. Cultured Cells in 48 wells or CTL clones after limiting dilution were used as responder cells. IFN-gamma ELISPOT assay and ELISA assay were performed under manufacture procedure.
# (§2) The cDNA encoding an open reading frame of target genes or HLA-A02 or HLA-A24 was amplified by PCR. The PCR-amplified product was cloned into pcDNA3.1 myc-His vector (Invitrogen). The plasmids were transfected into the target cells, HLA-A02 and HLA-A24-null normal human cell line COS7 or 293T using lipofectamine (Invitrogen) according to the manufacturer's recommended procedures. Alternatively, the plasmid contained the target genes were transfected into A24-LCL by electroporation using GenePulserII (Biorad). Briefly, 2.5×10^6 A24-LCL cells were pulsed with 10 mcg prasmid at 140V and 1000 micro F. After 2 days from transfection, the transfected cells were treated with Cell dissociation solution and used as the target cells for CTL activity assay.
# The established CTL line raised against these peptides were examined for their ability to recognize the target cells expressing ECT2 and HLA-A*2402. […] COS7 transfected with full length ECT2 but not HLA-A*2402 and COS7 transfected with HLA-A*2402 but not full length ECT2 (replaced other gene e.g. URLC10 or INHBB) were prepared as controls.
# [2] = tested on: peptide-pulsed A24-LCL cells; assay: IFN-gamma ELISPOT assay (positive wells); conditions: HLA-A24 peptides; as compared to the control
# In short: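 PBMC-derived DCs from HLA-A*2402 and/or A*0201 donors, pulsed with 20 micro g/ml peptide plus 3 micro g/ml beta 2-microglobulin, stimulated autologous CD8+ T cells three times (days 0, 7, 14). On day 21, responders were tested against peptide-pulsed A24-LCL or T2 cells by IFN-gamma ELISPOT. Values are reported as positive wells/wells tested; CTL lines confirmed by ELISA.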
# [3] = tested on: peptide-pulsed A24-LCL cells; assay: CTL line establishment, IFN-gamma ELISA; conditions: HLA-A24 peptides; vs target without peptide pulse
# In short: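 Peptide-pulsed A24-LCL or T2 cells (1×10^4/well) served as stimulators for responder cells from 48-well cultures or limiting-dilution CTL clones. Positive wells scored by IFN-gamma ELISPOT; CTL line establishment from positive wells confirmed by IFN-gamma ELISA; lines expanded with anti-CD3 (40 ng/ml), IL-2 and MMC-inactivated B-LCL feeders.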
# [4] = tested on: peptide-pulsed A24-LCL cells; assay: CTL clones by limiting dilution, specific CTL activity; conditions: HLA-A24 peptides; vs target without peptide pulse
# Protocol: The dilutions were made to have 0.3, 1, and 3 CTLs/well in 96 round-bottomed micro titer plate (Nalge Nunc International). CTLs were cultured with 7×10^4 cells/well of 2 kinds of human B-lymphoblastoid cell lines, 30 ng/ml of anti-CD3 antibody, and 125 U/ml of IL-2 in total of 150 micro 1/well of AIM-V containing 5% AS. 50 micro 1/well of IL-2 was added to the medium 10 days later so that IL-2 became 125 U/ml in the final concentration. CTL activity of CTLs was tested on the 14th day, and CTL clones were expanded using the same method above.
# as §1
# [5] = tested on: COS7 transfected with full length CDH3 gene and HLA-A*2402; assay: Specific CTL activity against transfected target cells; conditions: CTL clones raised by the peptide, vs single transfectants
# Protocol: as §1, §2
# The established CTL line raised against these peptides were examined for their ability to recognize the target cells expressing CDH3 and HLA-A*2402. […] COS7 transfected with full length CDH3 but not HLA-A*2402 and COS7 transfected with HLA-A*2402 but not full length CDH3 were prepared as controls.
# [6] = tested on: target cells pulsed with the peptide; assay: 51Cr release cytotoxicity assay
# Protocol: (§3) Cytotoxic activity was evaluated by a four-hour ^51Cr release assay. The target cells were pulsed with a 20 micro g/mL concentration of peptide overnight. The target cells were labeled with 100 micro Ci of Na2^51CrO4 at 37 degrees C. for one hour, and then washed three times with RPMI1640. The target cells (1×10^4/100 micro L) and 100 micro L of effector cells at various numbers with a total volume of 200 micro L were placed into a round-bottomed 96-well microtiter plate (Corning), and cultured at 37 degrees C. in a CO2 incubator for four hours. After culturing, 100 micro L of the supernatant was collected from each well, and measured the radioactivity using a gamma counter. Spontaneous release was the radioactivity from the target cells with medium in the absence of effector cells, and maximum release was the radioactivity from the target cells with 1 M HCl.
# (§4) The Percentage of specific cytotoxicity was determined by calculating as following formula: % Specific lysis=[(experimental release−spontaneous release)/(maximum release−spontaneous release)]×100. Results Enhanced CDH3, EPHA4, ECT2, HIG2, INHBB, KIF20A, KNTC2, TTK and URLC10 Expression in Cancers
# [7] = tested on: MIAPaca2 cancer cell line; assay: 51Cr release cytotoxicity assay
# Protocol: as §3, §4
# Furthermore, Cytotoxic activity was performed by cytotoxicity assay according to the protocols set forth in the “Materials and Methods” section above. […]
# Caki-1 cancer cell line = assay: 51Cr release cytotoxicity assay; conditions: Caki-1 expressing INHBB but not HLA-A02
# Protocol: as §3, §4
# (§5) Furthermore, Cytotoxic activity was examined by cytotoxicity assay according to the protocols set forth in the “Materials and Methods” section above.
# [8] = tested on: COS7 transfected with full length KIF20A gene and HLA-A*2402; assay: Specific CTL activity against transfected target cells; conditions: CTL line or clone raised by the peptide, vs control transfectants
# Protocol: as §1, §2
# The established CTL line raised against these peptides were examined for their ability to recognize the target cells expressing KIF20A and HLA-A*2402. […]
# PK59 cancer cell line = assay: 51Cr release cytotoxicity assay; conditions: PK59 expressing KIF20A but not HLA-A24
# Protocol: as §3, §4, §5
# peptide-pulsed T2 cells [9] = assay: IFN-gamma ELISPOT assay (positive wells); conditions: HLA-A02 peptides; as compared to the control
# In short: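 CD8+ T cells from HLA-A*2402 and/or HLA-A*0201 donors were stimulated 1:20 with autologous monocyte-derived DCs pulsed with 20 µg/ml peptide plus β2-microglobulin, in IL-7, with IL-2 added, restimulated on days 7 and 14. On day 21, IFN-γ ELISPOT against peptide-pulsed T2 or A24-LCL cells (1×10^4/well) scored wells as positive, with CTL lines confirmed by ELISA.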
# [10] = tested on: COS7 transfected with full length HIG2 gene and HLA-A*0201; assay: Specific CTL activity against transfected target cells; conditions: CTL line raised by the peptide; vs control transfectants; listed as HIG2-A02-9-15
# Protocol: as §1, §2
# (§6) The established CTL line raised against these peptides were examined for their ability to recognize the target cells expressing HIG2 and HLA-A*0201. […] 293T or COS7 transfected with full length ECT2 but not HLA-A*0201 and 293T or COS7 transfected with HLA-A*0201 but not full length ECT2 (or replaced other gene e.g. FoxP3 or TTK) were prepared as controls.
# peptide-pulsed T2 cells [11] = assay: CTL line establishment, IFN-gamma ELISA; conditions: HLA-A02 peptides; vs target without peptide pulse
# In short: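 CTLs expanded with MMC-inactivated B-lymphoblastoid lines, 40 ng/ml anti-CD3 and IL-2 (120 IU/ml day 1, then 30 IU/ml on days 5, 8, 11). Peptide-pulsed T2 or A24-LCL stimulators (1×10^4/well) incubated with cultured wells or limiting-dilution clones as responders; IFN-gamma detected by ELISPOT (positive wells) and ELISA (established CTL lines).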
# [12] = tested on: 293T transfected with full length HIG2 gene and HLA-A*0201; assay: Specific CTL activity against transfected target cells; conditions: CTL line raised by the peptide; vs control transfectants; listed as HIG2-A02-9-8
# Protocol: as §1, §2, §6
substance,measurement,setting,value
DFQDsVFNDL (DFQDSVFNDL; not fully specified; printed as DFQDsVFNDL) [SEQ ID NO: 101],Specific CTL activity against COS7 transfected with both ECT2 and HLA-A24,[1]; listed as ECT2-A24-10-101,highest specific CTL activity; also recorded: high specific CTL activity
same,IFN-gamma production by IFN-gamma ELISPOT assay,[2],potent IFN-gamma production
same,"Establishment of CTL line, specific CTL activity against the peptide-pulsed target determined by ELISA",[3],CTL lines were established
DYLNeWGSRF (DYLNEWGSRF; not fully specified; printed as DYLNeWGSRF) [SEQ ID NO: 30],IFN-gamma production by IFN-gamma ELISPOT assay,[2],potent IFN-gamma production
same,CTL activities of CTL clones against the peptide-pulsed target,[4],potent and specific CTL activities
same,Specific CTL activity against COS7 transfected with both CDH3 and HLA-A24,[5]; listed as CDH3-A24-10-807,highest specific CTL activity; also recorded: high specific CTL activity
same,"Establishment of CTL line, specific CTL activity against the peptide-pulsed target determined by ELISA",[3],CTL lines were established
FILPvLGAVL (FILPVLGAVL; not fully specified; printed as FILPvLGAVL) [SEQ ID NO: 344],IFN-gamma production by IFN-gamma ELISPOT assay,[2],potent IFN-gamma production
same,CTL activities of CTL clones against the peptide-pulsed target,[4],potent and specific CTL activities
same,Specific CTL activity against COS7 transfected with both CDH3 and HLA-A24,[5]; listed as CDH3-A24-10-655,highest specific CTL activity; also recorded: high specific CTL activity
same,"Establishment of CTL line, specific CTL activity against the peptide-pulsed target determined by ELISA",[3],CTL lines were established
"GLNPLTSYV [SEQ ID NO: 376, GLNPLTSYV]",Cytotoxic activity of CTL line against target cells pulsed with the peptide (Cr-release assay),[6],very potent specific cytotoxic activity
"KLNTEIRDV [SEQ ID NO: 379, KLNTEIRDV]",Cytotoxic activity of CTL line against target cells pulsed with the peptide (Cr-release assay),[6],very potent specific cytotoxic activity
LYLKLLPYV [SEQ ID NO: 395],Cytotoxic activity against MIAPaca2 (Cr-release assay),"[7]; INHBB-positive, compared to CAki-2, listed as INHBB-A24-9-180",remarkably high cytotoxic effect; also recorded: high specific cytotoxic activity
same,Cytotoxic activity against Caki-1 (Cr-release assay),Caki-1 cancer cell line,did not show significant specific cytotoxic activity
SEQ ID NO: 178: HLA-A*2402 binding 9-mer peptide derived from KIF20A (IFSIRILHL),IFN-gamma production by IFN-gamma ELISPOT assay,[2],potent IFN-gamma production
same,Specific CTL activity against COS7 transfected with both KIF20A and HLA-A24,[8]; listed as KIF20A-A24-9-383,highest specific CTL activity; also recorded: high specific CTL activity
same,"Establishment of CTL line, specific CTL activity against the peptide-pulsed target determined by ELISA",[3],CTL lines were established
SEQ ID NO: 194: HLA-A*2402 binding 10-mer peptide derived from KIF20A (KVYLRVRPLL),IFN-gamma production by IFN-gamma ELISPOT assay,[2],potent IFN-gamma production
same,CTL activities of CTL clones against the peptide-pulsed target,[4],potent and specific CTL activities
same,Specific CTL activity against COS7 transfected with both KIF20A and HLA-A24,[8]; listed as KIF20A-A24-10-66,highest specific CTL activity
same,"Establishment of CTL line, specific CTL activity against the peptide-pulsed target determined by ELISA",[3],CTL lines were established
SFFEIYNELL [SEQ ID NO: 186],Cytotoxic activity against MIAPaca2 (Cr-release assay),"[7]; Miapaca2 expressing both KIF20A and HLA-A24, listed as KIF20A-A24-10-304",remarkably high cytotoxic effect; also recorded: very potent specific cytotoxic activity
same,Cytotoxic activity against PK59 (Cr-release assay),PK59 cancer cell line,did not show significant specific cytotoxic activity
SYVEeEMPQI (SYVEEEMPQI; not fully specified; printed as SYVEeEMPQI) [SEQ ID NO: 100],Specific CTL activity against COS7 transfected with both ECT2 and HLA-A24,[1]; listed as ECT2-A24-10-40,highest specific CTL activity; also recorded: high specific CTL activity
same,IFN-gamma production by IFN-gamma ELISPOT assay,[2],potent IFN-gamma production
same,CTL activities of CTL clones against the peptide-pulsed target,[4],potent and specific CTL activities
same,"Establishment of CTL line, specific CTL activity against the peptide-pulsed target determined by ELISA",[3],CTL lines were established
TLLSIFVRV [SEQ ID NO: 116],IFN-gamma production by IFN-gamma ELISPOT assay,peptide-pulsed T2 cells [9],potent IFN-gamma production
same,Specific CTL activity against COS7 transfected with both HIG2 and HLA-A02,[10],highest specific CTL activity; also recorded: high specific CTL activity
same,"Establishment of CTL line, specific CTL activity against the peptide-pulsed target determined by ELISA",peptide-pulsed T2 cells [11],CTL lines were established
YLLGVVLTL [SEQ ID NO: 114],IFN-gamma production by IFN-gamma ELISPOT assay,peptide-pulsed T2 cells [9],potent IFN-gamma production
same,Specific CTL activity against 293T transfected with both HIG2 and HLA-A02,[12],highest specific CTL activity; also recorded: high specific CTL activity
same,"Establishment of CTL line, specific CTL activity against the peptide-pulsed target determined by ELISA",peptide-pulsed T2 cells [11],CTL lines were established

# Source: patent US8759481B2, “Peptide vaccines for cancers expressing tumor-associated antigens” (Oncotherapy Science, Inc., priority 2007, dated 2014)
